Among the data in patent publication US20070299072A1, “KV1.5 POTASSIUM CHANNEL INHIBITORS” (Wyeth, priority 2006, published 2007) are IC50 and inhibition values, retold here.

Holding throughout (assay type): cell-based
In series [1] the test system is L-type calcium channels. In words: FLIPR L-type Calcium Channel Assay (calcium influx in HL-1 cells after KCl). Conditions: read-out: L-type Ca2+ IC50. In a few lines:
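HL-1 cardiomyocytes loaded with FLIPR calcium dye for 60 min at 37° C in Tyrode's pH 7.35 with 2.5 mM probenecid, then preincubated 15 min with compounds. Channels were opened by 20 mM KCl final, and fluorescence was recorded for 5 min. Influx expressed as % control gave concentration-response IC50.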

Series [2] has as its target T1, Kv1.5 (Homo sapiens, UniProt P22460).
T1 construct: expressed in transfected cells; host or cells: HEK or LTK- cells
In words: Kv1.5 Patch Clamp EP (whole cell patch clamp; single point at 1 μM and IC50). The note with it: for IC50: concentration response; for inhibition at 1 µM: single point at 1.0 μM, Kv1.5 stably over expressed in HEK or LTK- cells. As to the method: The external solution is standard Tyrodes solution. […] Inhibition was measured at the end of the 1 second pulses and expressed relative to controls. Initial Kv1.5 inhibition is estimated by single point determinations done at 1 μM.

Series [3] has as its target T2, HERG (Homo sapiens, UniProt Q12809).
T2 construct: expressed in transfected cells; host or cells: HEK cells
In words: HERG Patch Clamp EP (whole cell patch clamp, tail currents; single point at 10 μM and IC50). The note with it: for IC50: concentration response; for inhibition at 10 µM: human, HEK cells stably overexpressing HERG, single point at 10 μM, HERG in HEK cells, read-out: HERG % Inhib. @ 10 μM. The text has this: The external solution is standard Tyrodes solution.

T2 sequence (Q12809 whole entry): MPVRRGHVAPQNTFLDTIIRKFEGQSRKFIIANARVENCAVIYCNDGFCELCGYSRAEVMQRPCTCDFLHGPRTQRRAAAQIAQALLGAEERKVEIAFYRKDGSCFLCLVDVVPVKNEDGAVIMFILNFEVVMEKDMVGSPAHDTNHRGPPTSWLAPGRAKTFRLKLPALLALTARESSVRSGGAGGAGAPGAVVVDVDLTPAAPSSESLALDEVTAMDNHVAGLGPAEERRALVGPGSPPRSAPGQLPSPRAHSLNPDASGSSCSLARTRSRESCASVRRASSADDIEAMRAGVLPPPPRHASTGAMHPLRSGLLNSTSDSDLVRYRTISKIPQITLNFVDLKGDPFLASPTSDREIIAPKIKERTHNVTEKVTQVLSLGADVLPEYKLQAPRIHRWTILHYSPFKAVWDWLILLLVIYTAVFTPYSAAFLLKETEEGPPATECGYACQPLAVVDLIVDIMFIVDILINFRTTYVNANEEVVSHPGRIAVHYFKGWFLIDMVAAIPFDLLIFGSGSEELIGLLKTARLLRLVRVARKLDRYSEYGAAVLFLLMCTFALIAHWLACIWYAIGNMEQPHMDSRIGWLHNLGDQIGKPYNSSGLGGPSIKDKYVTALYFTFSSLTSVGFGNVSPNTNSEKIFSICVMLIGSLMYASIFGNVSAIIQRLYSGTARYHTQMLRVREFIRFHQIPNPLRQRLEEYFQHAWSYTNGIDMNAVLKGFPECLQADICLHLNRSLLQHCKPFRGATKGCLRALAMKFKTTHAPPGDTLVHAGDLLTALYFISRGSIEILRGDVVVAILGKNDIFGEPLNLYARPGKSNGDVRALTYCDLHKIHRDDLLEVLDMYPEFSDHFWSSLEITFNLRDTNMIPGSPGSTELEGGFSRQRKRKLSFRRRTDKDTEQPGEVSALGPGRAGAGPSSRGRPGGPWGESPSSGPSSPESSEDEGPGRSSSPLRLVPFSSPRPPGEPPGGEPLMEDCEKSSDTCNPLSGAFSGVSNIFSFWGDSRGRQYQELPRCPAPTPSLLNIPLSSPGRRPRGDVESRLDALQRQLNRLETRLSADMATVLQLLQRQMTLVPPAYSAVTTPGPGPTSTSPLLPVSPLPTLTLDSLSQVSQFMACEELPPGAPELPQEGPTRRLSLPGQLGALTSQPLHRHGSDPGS
T1 sequence (P22460 whole entry): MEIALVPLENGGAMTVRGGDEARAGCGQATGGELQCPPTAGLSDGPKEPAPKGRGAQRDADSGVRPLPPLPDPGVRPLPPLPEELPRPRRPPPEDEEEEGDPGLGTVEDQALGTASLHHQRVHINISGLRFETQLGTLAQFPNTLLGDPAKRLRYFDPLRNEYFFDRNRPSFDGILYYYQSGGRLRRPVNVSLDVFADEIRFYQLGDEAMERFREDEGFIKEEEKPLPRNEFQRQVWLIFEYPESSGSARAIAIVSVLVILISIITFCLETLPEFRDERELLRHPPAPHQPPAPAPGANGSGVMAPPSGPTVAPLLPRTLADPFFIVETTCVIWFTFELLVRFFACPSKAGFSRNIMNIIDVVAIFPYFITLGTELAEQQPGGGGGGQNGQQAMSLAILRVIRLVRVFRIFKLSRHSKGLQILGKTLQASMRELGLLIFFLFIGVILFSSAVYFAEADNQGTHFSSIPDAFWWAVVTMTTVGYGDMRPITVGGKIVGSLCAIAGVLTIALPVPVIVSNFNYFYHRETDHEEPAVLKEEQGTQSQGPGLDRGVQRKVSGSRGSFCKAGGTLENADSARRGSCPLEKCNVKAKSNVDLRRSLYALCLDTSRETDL

A word on the IC50: it is the concentration needed to halve the response being measured. With `COc1ccc(CCN2C(=O)C3(CCN(C(N)=O)CC3)N(C)[C@H]2c2ccc(C3CC3)cc2)cc1` [Compound 99, (R)-2-(4-cyclopropylphenyl)-3-[2-(4-methoxyphenyl)ethyl]-1-methyl-4-oxo-1,3,8-triaza-spiro[4.5]decane-8-carboxylic acid amide], in series [1], the IC50 is 24 µM. Besides, in series [2], the IC50 came to 0.397 µM and the inhibition at 1 µM was 80%. Also, in series [3], 16 µM corresponded to half-maximal inhibition (IC50) and the inhibition at 10 µM amounted to 24%.
In the case of `COc1ccc(CCN2C(=O)C3(CCN(C(=O)OC(C)(C)C)CC3)NC2c2ccc(OC(F)F)cc2)cc1` (stereo not drawn) [Compound 62, 2-(4-Difluoromethoxyphenyl)-3-[2-(4-methoxyphenyl)ethyl]-4-oxo-1,3,8-triaza-spiro[4.5]decane-8-carboxylic acid tert-butyl ester], in series [1], the IC50 was determined as 7.8 µM. In series [2], this molecule displayed an IC50 of 0.257 µM and an inhibition at 1 µM of 93%. In addition, in series [3], the IC50 was determined as 4.6 µM and the inhibition at 10 µM came out at 62%.
Turning to `CN(C)C(=O)N1CCC2(CC1)C(=O)N(CCCc1ccccc1)C(c1ccc(C3CC3)cc1)N2C` (stereo not drawn) [Compound 53, 2-(4-Cyclopropylphenyl)-1-methyl-4-oxo-3-(3-phenylpropyl)-1,3,8-triazaspiro-[4.5]decane-8-carboxylic acid dimethylamide], the IC50 in series [1] was 4.5 µM. In series [2], this molecule had an inhibition at 1 µM of 93%. Besides, the inhibition at 10 µM in series [3] was 77%.
Turning to `COc1ccc(CCN2C(=O)C3(CCN(C(=NC#N)Oc4ccccc4)CC3)N(C)C2c2ccc(OC)cc2)cc1` (stereo not drawn) [Compound 67, 8-(phenyl-N-cyano-1-carbimidate)-2-(4-methoxyphenyl)-3-[2-(4-methoxyphenyl)ethyl]-1-methyl-1,3,8-triaza-spiro[4.5]decan-4-one], the IC50 in series [1] stood at 10 µM. Moreover, the inhibition at 1 µM in series [2] was determined as 91%. For the same molecule, the inhibition at 10 µM in series [3] stood at 80%.
The like results for `CCCCC(=O)N1CCC2(CC1)C(=O)N(CCc1ccc(OC)cc1)C(c1ccc(OC(F)F)cc1)N2C` (stereo not drawn) [Compound 81, 2-[4-(difluoromethoxy)phenyl]-3-[2-(4-methoxyphenyl)ethyl]-1-methyl-8-pentanoyl-1,3,8-triazaspiro[4.5]decan-4-one] were, in that order, 9 µM, 80% and 95%.
The corresponding values for `COc1ccc(CCN2C(=O)C3(CCN(C(=O)N4CCOCC4)CC3)N(C)C2c2ccc(C3CC3)cc2)cc1` (stereo not drawn) [Compound 24, 2-(4-Cyclopropylphenyl)-3-[2-(4-methoxyphenyl)ethyl]-1-methyl-8-(morpholin-4-ylcarbonyl)-1,3,8-triaza-spiro[4.5]decan-4-one] are 13 µM, 82% and 27%.
The like results for `COc1ccc(CCN2C(=O)C3(CCN(C(=O)NO)CC3)N(C)C2c2ccc(C3CC3)cc2)cc1` (stereo not drawn) [Compound 26, 2-(4-Cyclopropylphenyl)-N-hydroxy-3-[2-(4-methoxyphenyl)ethyl]-1-methyl-4-oxo-1,3,8-triazaspiro[4.5]decane-8-carboxamide] were, in that order, 24 µM, 65% and 5%.
Turning to `COc1ccc(CCN2C(=O)C3(CCN(C(=O)C4CC4)CC3)N(C)C2c2ccc(CC(C)C)cc2)cc1` (stereo not drawn) [Compound 83, 8-(cyclopropylcarbonyl)-2-(4-isobutylphenyl)-3-[2-(4-methoxyphenyl)ethyl]-1-methyl-1,3,8-triazaspiro[4.5]decan-4-one], in series [1], the IC50 is 6.8 µM. Moreover, the inhibition at 1 µM in series [2] was 93%. Also, in series [3], the inhibition at 10 µM stood at 84%.
The like results for `COc1ccc(CCN2C(=O)C3(CCN(C(=O)N4CCCCC4)CC3)N(C)C2c2ccc(C3CC3)cc2)cc1` (stereo not drawn) [Compound 9, 2-(4-Cyclopropylphenyl)-3-[2-(4-methoxyphenyl)ethyl]-1-methyl-8-(piperidine-1-carbonyl)-1,3,8-triaza-spiro[4.5]decan-4-one] were, in that order, 6.2 µM, 96% and 60%.
Turning to `COc1ccc(CCN2C(=O)C3(CCN(C(=O)NC(C)C)CC3)N(C)C2c2ccc(C3CC3)cc2)cc1` (stereo not drawn) [Compound 16, 2-(4-Cyclopropylphenyl)-3-[2-(4-methoxyphenyl)ethyl]-1-methyl-4-oxo-1,3,8-triaza-spiro[4.5]decane-8-carboxylic acid isopropylamide], the IC50 in series [1] came to 13 µM; in series [2], 0.319 µM. The molecule further yielded an inhibition at 1 µM in series [2] of 92%. Besides, in series [3], the inhibition at 10 µM came out at 48%.
Regarding `COc1ccc(CCN2C(=O)C3(CCN(C(=O)OC(C)(C)C)CC3)NC2Cc2ccc(C(C)(C)C)cc2)cc1` (stereo not drawn) [Compound 96, 2-(4-tert-butylbenzyl)-3-[2-(4-methyoxyphenyl)ethyl]-4-oxo-1,3,8-triaza-spiro[4.5]decane-8-carboxylic acid tert-butyl ester], the IC50 in series [1] amounted to 12 µM. In series [2], this molecule had an IC50 of 0.393 µM and an inhibition at 1 µM of 96%. Further, in series [3], the inhibition at 10 µM was 12%.
As for `COc1ccc(CCN2C(=O)C3(CCN(C(N)=O)CC3)N(C)C2Cc2ccc(C(C)(C)C)cc2)cc1` (stereo not drawn) [Compound 58, 2-(4-tert-Butylbenzyl)-3-[2-(4-methoxyphenyl)ethyl]-1-methyl-4-oxo-1,3,8-triazaspiro[4.5]decane-8-carboxylic acid amide], the IC50 in series [1] was determined as 12 µM. In series [2], this molecule returned an IC50 of 0.25 µM and an inhibition at 1 µM of 92%. For the same molecule, in series [3], the IC50 was determined as 4.4 µM and the inhibition at 10 µM stood at 68%.
Regarding `COc1ccc(CCN2C(=O)C3(CCN(C(=O)N4CCCC4)CC3)N(C)C2c2ccc(C3CC3)cc2)cc1` (stereo not drawn) [Compound 23, 2-(4-Cyclopropylphenyl)-3-[2-(4-methoxyphenyl)ethyl]-1-methyl-8-(pyrrolidin-1-ylcarbonyl)-1,3,8-triaza-spiro[4.5]decan-4-one], the IC50 in series [1] was determined as 6.6 µM; in series [2] it was 0.181 µM; in series [3], 6.2 µM. This molecule also displayed an inhibition at 1 µM in series [2] of 96%. Besides, the inhibition at 10 µM in series [3] amounted to 77%.
Consider `COc1ccc(CCN2C(=O)C3(CCN(S(C)(=O)=O)CC3)NC2c2ccc(C(C)(C)C)cc2)cc1` (stereo not drawn) [Compound 63, 2-(4-tert-Butylphenyl)-8-methanesulfonyl-3-[2-(4-methoxyphenyl)ethyl]-1,3,8-triaza-spiro[4.5]decan-4-one], for which the IC50 in series [1] amounted to 3 µM. The same molecule yielded an inhibition at 1 µM in series [2] of 73%. Moreover, the inhibition at 10 µM in series [3] was 40%.
For `COc1ccc(CCN2C(=O)C3(CCN(C(N)=O)CC3)N(C)[C@@H]2c2ccc(C3CC3)cc2)cc1` [Compound 98, (S)-2-(4-cyclopropylphenyl)-3-[2-(4-methoxyphenyl)ethyl]-1-methyl-4-oxo-1,3,8-triaza-spiro[4.5]decane-8-carboxylic acid amide], the IC50 in series [1] amounted to 13 µM. Further, in series [2], the IC50 was found to be 0.32 µM and the inhibition at 1 µM was determined as 90%. Besides, in series [3], the IC50 was found to be 13 µM and the inhibition at 10 µM came out at 13%.
